Where “and” joins values, the source holds several entries; their conditions need not be identical. Identical values can stand only once.
Test system: 485176-168-R4-J1-PDC spheroids with HUVEC/MSC, viability
Test: Anticancer human tumor 485176-168-R4-J1-PDC patient-derived pancreatic adenocarcinoma cell line growth inhibition [GQUAD]
Conditions: for viability, T/C: stronger effect = lower value
From the text: DNA G-quadruplex Stabilizer Agents in Combinations in Complex Spheroids
A high-throughput screen of multi-cell type tumor spheroids was designed to identify active combinations of DNA G-quadruplex stabilizer agents and targeted small molecules. Complex spheroids include a stromal component modeled by human endothelial cells (HUVEC) and fibroblasts modeled by human mesenchymal stem cells (MSCs). The concentration ranges selected for each drug and investigational agent were based upon clinically achievable concentrations if the clinical Cmax of the agent was known.
Compounds. The drugs and investigational agents: pidnarulex (CX-5461; NSC782164), APTO-253 (NSC789042), BRACO-19 (NSC847499), peposertib (NSC802822), ceralasertib (NSC780249), elimusertib (NSC800525), camonsertib (NSC841442), AZD-1390 (NSC803789), olaparib (NSC753686), talazoparib (NSC767125), ART-558 (NSC835418), sotorasib (NSC818433), MRTX-1133 (NSC836407), SN-38 (NSC673596), topotecan (NSC609699), etoposide (NSC141540), doxorubicin (NSC123127), gemcitabine (NSC613327), 5-fluorouracil (NSC19893), paclitaxel (NSC125973), vemurafenib (NSC761431), panobinostat (NSC761190), R-306465 (JNJ-16241199; NSC773264), adavosertib (NSC754352), TP-3654 (NSC805149), carboplatin (NSC241240), KSQ-4279 (NSC840948), and staurosporine (NSC755774) were obtained from the National Cancer Institute (NCI) Developmental Therapeutics Program Chemical Repository (34). The FDA-approved anticancer drug set is available from the NCI Developmental Therapeutics Program. […] The stock solutions were prepared in dimethyl sulfoxide (DMSO, Sigma-Aldrich, St. Louis, MO, cat. D2650) at 800-fold the tested concentration and stored at -70 degrees C prior to their use. All drugs and investigational agents were tested over a range starting from a high concentration at or near the clinical Cmax and decreasing in half-log increments. If the clinical Cmax for an agent had not been determined, the highest concentration tested was 10 microM.
2.3 Cell Culture. All cells were maintained in an incubator at 37 degrees C and 5% CO2 with 95% humidity. The PDC lines were cultured according to standard operating procedures established by the NCI PDMR. All PDCs were thawed and cultured in Matrigel-coated flasks prepared with a working solution of 1X Ham's F-12 nutrient mix, without supplementation (Invitrogen, cat. 11765054), 100 U/mL penicillin-streptomycin (Invitrogen, cat. 15140122), and 2.5% Matrigel (Corning Inc., cat. 354248) for the first three passages. The 857933-349-R-J2-PDC line was cultured in 6C/Colon 1B media, which includes advanced DMEM/F-12 (Thermo Fisher Scientific, cat. 12634028), 10 mM HEPES (Thermo Fisher Scientific, cat. 15630080), 1X GlutaMAX supplement (Thermo Fisher Scientific, cat. 35050061), 0.1 mg/mL primocin (InvivoGen, cat. ant-pm-2), 10% defined fetal bovine serum, heat inactivated (HyClone Laboratories Inc., cat. SH30070.03HI), 50% L-WRN conditioned media (ATCC, cat. CRL-3276), 1.25 mM N-Acetyl-L-cysteine (Sigma-Aldrich, cat. A9165), 10 mM nicotinamide (Sigma-Aldrich, cat. N0636), 1X B-27 supplement (Thermo Fisher Scientific, cat. 17504044), 1X N-2 supplement (Thermo Fisher Scientific, cat. 17502048), 10 microM Y-27632 dihydrochloride (Tocris Bioscience, cat. 1254), and 50 ng/mL human EGF recombinant protein (Thermo Fisher Scientific, cat. PHG0311). The 485176-168-R4-J1-PDC line was cultured in Panc media, which includes all 6C/Colon 1B media components plus 100 ng/mL human FGF-10 (Thermo Fisher Scientific, cat. 100-26), 500 nM SB-431542 (Selleckchem, cat. S1067), and gastrin (Tocris, cat. 3006).
[…]
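Further: spheroids exposed to compounds for seven days before readout.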
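Wherever viability, T/C is given: percent viability relative to DMSO vehicle control wells as 100%.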

## COc1cccc2c1C(=O)c1c(O)c3c(c(O)c1C2=O)CC(O)(C(=O)CO)CC3OC1CC(N)C(O)C(C)O1 (configuration not stated)
Compound 0.0316 µM
  viability, T/C: 94.5% and 91.5% and 81.9%
Compound 0.1 µM
  viability, T/C: 59.7% and 68.6% and 56.4%
Compound 0.316 µM
  viability, T/C: 51.7% and 52.9% and 48.3%
Compound 1 µM
  viability, T/C: 16% and 16.9% and 15.1%
Compound 3.16 µM
  viability, T/C: 4.15% and 1.93% and 4.74%
Compound 10 µM
  viability, T/C: 0.3% and 0.31% and 0.43%
Curve of compound
  IC50: 215 nM and 283 nM and 193 nM

## COc1cc(C2c3cc4c(cc3C(OC3OC5COC(C)OC5C(O)C3O)C3COC(=O)C23)OCO4)cc(OC)c1O (configuration not stated)
Compound 0.0316 µM
  viability, T/C: 102% and 101% and 95%
Compound 0.1 µM
  viability, T/C: 80.2% and 68.8% and 67.7%
Compound 0.316 µM
  viability, T/C: 46.6% and 39.1% and 39.6%
Compound 1 µM
  viability, T/C: 39.9% and 38.8% and 40.8%
Compound 3.16 µM
  viability, T/C: 25.9% and 24.6% and 23.1%
Compound 10 µM
  viability, T/C: 13.2% and 13.4% and 11%
Curve of compound
  IC50: 406 nM and 255 nM and 269 nM

## Cn1ncnc1[C@H]1c2n[nH]c(=O)c3cc(F)cc(c23)N[C@@H]1c1ccc(F)cc1
Compound 0.000999 µM
  viability, T/C: 99.2% (2×) and 86.5%
Compound 0.00316 µM
  viability, T/C: 95.2% and 94% and 85.8%
Compound 0.00999 µM
  viability, T/C: 96.4% and 108% and 91.5%
Compound 0.0316 µM
  viability, T/C: 98.8% and 101% and 88.8%
Compound 0.0999 µM
  viability, T/C: 91.2% and 91.7% and 89.7%
Compound 0.316 µM
  viability, T/C: 75.9% and 98.5% and 85.9%
Curve of compound
  IC50: > 316 nM

## CC(C)n1c(=O)n(C)c2cnc3cc(F)c(-c4ccc(OCCCN5CCCCC5)nc4)cc3c21
Compound 0.0316 µM
  viability, T/C: 91.6% and 91.4% and 87.6%
Compound 0.1 µM
  viability, T/C: 84.9% and 80% and 85%
Compound 0.316 µM
  viability, T/C: 92.1% and 95.7% and 88.2%
Compound 1 µM
  viability, T/C: 91.2% and 77.1% and 86.4%
Compound 3.16 µM
  viability, T/C: 82.5% and 93.8% and 83.5%
Compound 10 µM
  viability, T/C: 78.8% and 75.8% and 72.5%
Curve of compound
  IC50: > 10000 nM

## CC1COCCN1c1cc(C2(O)CC3CCC(C2)O3)c2cnn(-c3ccn[nH]3)c2n1 (configuration not stated)
Compound 0.0316 µM
  viability, T/C: 68% and 73.8% and 81.9%
Compound 0.1 µM
  viability, T/C: 32.8% and 40.7% and 53.4%
Compound 0.316 µM
  viability, T/C: 11.7% and 19.7% and 16.1%
Compound 1 µM
  viability, T/C: 8.14% and 9.02% and 10.2%
Compound 3.16 µM
  viability, T/C: 8.91% and 11.7% and 10.2%
Compound 10 µM
  viability, T/C: 9.41% and 8.55% and 9.34%
Curve of compound
  IC50: 57 nM and 72.7 nM and 111 nM

## O=C(NO)c1cnc(N2CCN(S(=O)(=O)c3ccc4ccccc4c3)CC2)nc1 + Cc1[nH]c2ccc(F)cc2c1-c1nc2c3cccnc3c3ncccc3c2[nH]1
Curve of first compound, second compound 0.0316 µM
  IC50: 511 nM
Curve of first compound, second compound 0.1 µM
  IC50: 597 nM
Curve of first compound, second compound 0.316 µM
  IC50: 557 nM
Curve of first compound, second compound 1 µM
  IC50: 592 nM
Curve of first compound, second compound 3.16 µM
  IC50: 1030 nM
Curve of first compound, second compound 10 µM
  IC50: 1020 nM
Second compound 0.0316 µM, first compound 0.0316 µM
  viability, T/C: 94.1%
Second compound 0.0316 µM, first compound 0.1 µM
  viability, T/C: 86.3%
Second compound 0.0316 µM, first compound 0.316 µM
  viability, T/C: 70.8%
Second compound 0.0316 µM, first compound 1 µM
  viability, T/C: 21.8%
Second compound 0.0316 µM, first compound 3.16 µM
  viability, T/C: 0.24%
Second compound 0.0316 µM, first compound 10 µM
  viability, T/C: 0.23%
Second compound 0.1 µM, first compound 0.0316 µM
  viability, T/C: 90.3%
Second compound 0.1 µM, first compound 0.1 µM
  viability, T/C: 98.4%
Second compound 0.1 µM, first compound 0.316 µM
  viability, T/C: 80.4%
Second compound 0.1 µM, first compound 1 µM
  viability, T/C: 25.1%
Second compound 0.1 µM, first compound 3.16 µM
  viability, T/C: 0.3%
Second compound 0.1 µM, first compound 10 µM
  viability, T/C: 0.19%
Second compound 0.316 µM, first compound 0.0316 µM
  viability, T/C: 122%
Second compound 0.316 µM, first compound 0.1 µM
  viability, T/C: 87.5%
Second compound 0.316 µM, first compound 0.316 µM
  viability, T/C: 67.1%
Second compound 0.316 µM, first compound 1 µM
  viability, T/C: 42.8%
Second compound 0.316 µM, first compound 3.16 µM
  viability, T/C: 0.2%
Second compound 0.316 µM, first compound 10 µM
  viability, T/C: 0.18%
Second compound 1 µM, first compound 0.0316 µM
  viability, T/C: 94.2%
Second compound 1 µM, first compound 0.1 µM
  viability, T/C: 84.7%
Second compound 1 µM, first compound 0.316 µM
  viability, T/C: 68%
Second compound 1 µM, first compound 1 µM
  viability, T/C: 37.6%
Second compound 1 µM, first compound 3.16 µM
  viability, T/C: 0.32%
Second compound 1 µM, first compound 10 µM
  viability, T/C: 0.18%
Second compound 3.16 µM, first compound 0.0316 µM
  viability, T/C: 87.9%
Second compound 3.16 µM, first compound 0.1 µM
  viability, T/C: 79.9%
Second compound 3.16 µM, first compound 0.316 µM
  viability, T/C: 73.5%
Second compound 3.16 µM, first compound 1 µM
  viability, T/C: 52.3%
Second compound 3.16 µM, first compound 3.16 µM
  viability, T/C: 0.29%
Second compound 3.16 µM, first compound 10 µM
  viability, T/C: 0.21%
Second compound 10 µM, first compound 0.0316 µM
  viability, T/C: 88.2%
Second compound 10 µM, first compound 0.1 µM
  viability, T/C: 71.7%
Second compound 10 µM, first compound 0.316 µM
  viability, T/C: 75.6%
Second compound 10 µM, first compound 1 µM
  viability, T/C: 50.9%
Second compound 10 µM, first compound 3.16 µM
  viability, T/C: 0.27%
Second compound 10 µM, first compound 10 µM
  viability, T/C: 0.37%

From PubChem BioAssay AID2060509 (Molecular Pharmacology Branch, DTP, NCI, 2025)
